The record followed here is US11685732B2, “MYST family histone acetyltransferase inhibitors” (Epizyme, Inc., priority 2017, dated 2023).

One experiment deals with KAT-6A (Homo sapiens (Human), UniProt Q92794). Kind of experiment: KAT-6A biochemical inhibition assay (SAMDI mass spectrometry). In outline:
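IC50 values came from SAMDI time-of-flight mass spectrometry after formic acid quench (0.5% final). Acetylation ran 90 min at 25 °C with 1 μM acetyl coenzyme A and 1 μM peptide substrate, following compound pre-incubation with 12.5 nM KAT-6A in Tris buffer pH 8.0 containing DTT, 2% DMSO final.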

For the next experiment, the target named is KAT-5 (Homo sapiens (Human), UniProt Q92993). The experiment in a line: KAT-5 biochemical inhibition assay (SAMDI mass spectrometry). In outline:
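Acetylation of 1 μM peptide by 9 nM enzyme with 0.5 μM acetyl-CoA (final) was run 90 min at 25° C in Tris pH 8.0 buffer with DTT, after compound preincubation at 2% DMSO. Formic acid stopped the reaction, and product was quantified by SAMDI mass spectrometry to derive IC50.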

Another experiment concerns the target KAT-7 (Homo sapiens (Human), UniProt O95251). The experiment in a line: KAT-7 biochemical inhibition assay (SAMDI mass spectrometry). In outline:
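Read-out was SAMDI time-of-flight MS of formic acid-quenched reactions (0.5% final). Compound dilutions (2% DMSO final) were pre-incubated with 6 nM KAT-7 in 50 mM Tris pH 8.0 with 1 mM DTT, then given 1 μM peptide substrate and 2 μM acetyl-CoA for 120 min at 25 °C. IC50 values were derived.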

The target in a further experiment is KAT-8 (Homo sapiens (Human), UniProt Q9H7Z6). The experiment in a line: KAT-8 biochemical inhibition assay (SAMDI mass spectrometry). Put shortly:
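Acetylation of 1 μM peptide substrate with 5 μM acetyl-CoA by 12.5 nM enzyme, compound pre-incubated, 2% DMSO, Tris pH 8.0 buffer with DTT, 25 °C for 90 min. Quench with 0.5% formic acid; product read by SAMDI mass spectrometry to give IC50.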

Structures are written as SMILES. Where only a bound is given, the exact number is not on record here.

Chain of KAT-8 (Q9H7Z6 other isoform, or with tags, fused parts or gaps): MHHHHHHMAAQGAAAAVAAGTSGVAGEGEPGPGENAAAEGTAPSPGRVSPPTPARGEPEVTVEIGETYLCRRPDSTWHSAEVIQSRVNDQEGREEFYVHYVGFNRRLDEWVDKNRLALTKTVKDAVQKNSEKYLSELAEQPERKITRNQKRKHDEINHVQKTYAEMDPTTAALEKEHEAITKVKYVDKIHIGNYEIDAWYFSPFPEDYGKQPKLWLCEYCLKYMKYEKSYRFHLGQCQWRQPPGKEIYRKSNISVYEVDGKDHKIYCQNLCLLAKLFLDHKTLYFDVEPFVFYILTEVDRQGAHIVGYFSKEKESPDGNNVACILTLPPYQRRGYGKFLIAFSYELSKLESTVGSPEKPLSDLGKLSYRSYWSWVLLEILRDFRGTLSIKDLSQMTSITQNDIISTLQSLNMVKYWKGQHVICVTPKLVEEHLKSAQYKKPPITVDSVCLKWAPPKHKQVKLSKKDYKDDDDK
Chain of KAT-7 (O95251 other isoform, or with tags, fused parts or gaps): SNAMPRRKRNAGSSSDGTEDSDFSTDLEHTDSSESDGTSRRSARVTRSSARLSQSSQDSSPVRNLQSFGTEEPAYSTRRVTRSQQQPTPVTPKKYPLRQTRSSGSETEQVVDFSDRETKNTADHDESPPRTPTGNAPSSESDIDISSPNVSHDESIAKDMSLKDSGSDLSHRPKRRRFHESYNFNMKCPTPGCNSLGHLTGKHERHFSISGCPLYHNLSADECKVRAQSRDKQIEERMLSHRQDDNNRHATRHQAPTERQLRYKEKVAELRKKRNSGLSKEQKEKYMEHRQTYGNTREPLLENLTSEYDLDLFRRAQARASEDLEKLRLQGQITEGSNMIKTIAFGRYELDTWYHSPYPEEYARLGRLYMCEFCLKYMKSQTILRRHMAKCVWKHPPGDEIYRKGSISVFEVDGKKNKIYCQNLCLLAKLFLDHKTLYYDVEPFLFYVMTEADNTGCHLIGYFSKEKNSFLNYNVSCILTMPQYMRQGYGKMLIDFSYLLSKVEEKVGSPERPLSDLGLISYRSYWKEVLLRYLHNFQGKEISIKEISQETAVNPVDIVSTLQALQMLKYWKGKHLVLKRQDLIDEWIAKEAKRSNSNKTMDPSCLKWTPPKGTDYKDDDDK
Chain of KAT-6A (Q92794 other isoform, or with tags, fused parts or gaps): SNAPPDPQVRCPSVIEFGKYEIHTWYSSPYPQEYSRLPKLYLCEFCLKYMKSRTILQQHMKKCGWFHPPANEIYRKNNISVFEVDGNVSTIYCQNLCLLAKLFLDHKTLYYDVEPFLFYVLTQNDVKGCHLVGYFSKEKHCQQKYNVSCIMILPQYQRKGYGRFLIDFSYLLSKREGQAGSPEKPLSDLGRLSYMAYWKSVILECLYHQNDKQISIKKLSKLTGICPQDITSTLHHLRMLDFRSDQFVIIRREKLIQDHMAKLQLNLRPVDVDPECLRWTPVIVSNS
Chain of KAT-5 (Q92993 other isoform, or with tags, fused parts or gaps): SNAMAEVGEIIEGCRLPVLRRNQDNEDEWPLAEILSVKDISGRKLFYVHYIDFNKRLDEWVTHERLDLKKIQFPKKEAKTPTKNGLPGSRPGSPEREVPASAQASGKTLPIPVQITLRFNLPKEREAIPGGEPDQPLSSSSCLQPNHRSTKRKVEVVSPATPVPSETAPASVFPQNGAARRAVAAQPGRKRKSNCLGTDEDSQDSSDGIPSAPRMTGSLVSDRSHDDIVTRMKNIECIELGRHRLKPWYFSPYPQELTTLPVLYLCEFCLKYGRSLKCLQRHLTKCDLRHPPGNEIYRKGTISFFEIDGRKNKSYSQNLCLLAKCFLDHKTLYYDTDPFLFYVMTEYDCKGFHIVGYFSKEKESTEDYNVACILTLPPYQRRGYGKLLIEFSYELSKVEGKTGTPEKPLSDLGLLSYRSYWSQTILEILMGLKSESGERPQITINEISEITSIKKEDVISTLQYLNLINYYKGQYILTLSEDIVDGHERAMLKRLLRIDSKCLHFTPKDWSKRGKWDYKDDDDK

Broadly, the IC50 is the concentration needed to halve the response being measured. As for `Cn1cnc(-c2cc(Cl)c(F)c(C(=O)NNS(=O)(=O)CC3CC4CC4C3)c2)c1` (stereo not drawn) [Compound I-289], the half-inhibitory concentration (IC50) at KAT-6A was less than 10 µM; against KAT-5, less than 10 µM; on KAT-7 it was less than 10 µM; at KAT-8 it was 10 to 50 µM.

In the case of `Cn1cnc(-c2cc(Cl)c(F)c(C(=O)NNS(=O)(=O)C[C@H]3CCC[C@@H](OCc4ccccc4)C3)c2)c1` [Compound I-290], the IC50 at KAT-6A is 10 to 50 µM; at KAT-5, less than 10 µM; at KAT-7 it was less than 10 µM; at KAT-8, 10 to 50 µM.

As for `CCN(C)C(=O)NC1CCC(CS(=O)(=O)NNC(=O)c2cc(-c3cn(C)cn3)cc(Cl)c2F)C1` (stereo not drawn) [Compound I-291], the IC50 was 10 to 50 µM against KAT-6A, less than 10 µM at KAT-5, less than 10 µM against KAT-7 and 10 to 50 µM at KAT-8.

As to `CN(C)C(=O)N(C)C1CCCC(CS(=O)(=O)NNC(=O)c2cc(-c3cn(C)cn3)cc(Cl)c2F)C1` (stereo not drawn) [Compound I-292], the IC50 at KAT-6A was less than 10 µM; against KAT-5, less than 10 µM; at KAT-7, less than 10 µM; against KAT-8 it was 10 to 50 µM.

As for `CCNC(=O)N(C)C1CCCC(CS(=O)(=O)NNC(=O)c2cc(-c3cn(C)cn3)cc(Cl)c2F)C1` (stereo not drawn) [Compound I-293], the IC50 is less than 10 µM against KAT-6A, less than 10 µM against KAT-5, less than 10 µM against KAT-7 and 10 to 50 µM on KAT-8.

As for `CCC(=O)N(C)C1CCCC(CS(=O)(=O)NNC(=O)c2cc(-c3cn(C)cn3)cc(Cl)c2F)C1` (stereo not drawn) [Compound I-294], the IC50 is less than 10 µM at KAT-6A, less than 10 µM against KAT-5, less than 10 µM at KAT-7 and 10 to 50 µM against KAT-8.

As to `CN(C(=O)C1CCC1)C1CCCC(CS(=O)(=O)NNC(=O)c2cc(-c3cn(C)cn3)cc(Cl)c2F)C1` (stereo not drawn) [Compound I-295], the IC50 on KAT-6A is less than 10 µM; at KAT-5 it was less than 10 µM; against KAT-7, less than 10 µM; at KAT-8 it was 10 to 50 µM.

As to `CN(C(=O)OC(C)(C)C)C1CCC(CS(=O)(=O)NNC(=O)c2cc(-c3cn(C)cn3)cc(Cl)c2F)CC1` (stereo not drawn) [Compound I-296], the IC50 against KAT-6A was less than 10 µM; against KAT-5, less than 10 µM; against KAT-7, less than 10 µM; against KAT-8 it was 10 to 50 µM.

Turning to `CNC1CCC(CS(=O)(=O)NNC(=O)c2cc(-c3cn(C)cn3)cc(Cl)c2F)CC1` (stereo not drawn) [Compound I-297], the IC50 against KAT-6A was 10 to 50 µM; at KAT-5 it was 10 to 50 µM; on KAT-7 it was less than 10 µM; on KAT-8 it was 10 to 50 µM.

`Cn1cnc(-c2cc(Cl)c(F)c(C(=O)NNS(=O)(=O)C[C@H]3C[C@H]4CC[C@@H]3O4)c2)c1` [Compound I-298]: the IC50 was less than 10 µM on KAT-6A, less than 10 µM against KAT-5, less than 10 µM at KAT-7 and 10 to 50 µM against KAT-8.

With `Cn1cnc(-c2cc(Cl)c(F)c(C(=O)NNS(=O)(=O)C[C@@H]3C[C@H]4CC[C@@H]3O4)c2)c1` [Compound I-299], the IC50 on KAT-6A is less than 10 µM; against KAT-5 it was less than 10 µM; against KAT-7, less than 10 µM; against KAT-8, 10 to 50 µM.

Regarding `Cn1cnc(-c2cc(Cl)c(F)c(C(=O)NNS(=O)(=O)C[C@H]3CCC[C@@H](O)C3)c2)c1` [Compound I-300], the IC50 was less than 10 µM against KAT-6A, less than 10 µM against KAT-5, less than 10 µM on KAT-7 and 10 to 50 µM at KAT-8.

Turning to `Cn1cnc(-c2cc(Cl)c(F)c(C(=O)NNS(=O)(=O)c3cccnc3)c2)c1` [Compound I-301], the IC50 is less than 10 µM against KAT-6A, 10 to 50 µM on KAT-5, less than 10 µM on KAT-7 and 10 to 50 µM at KAT-8.

Consider `CC1CCCC(CS(=O)(=O)NNC(=O)c2cc(-c3cn(C)cn3)cc(Cl)c2F)C1` (stereo not drawn) [Compound I-302], for which the IC50 was less than 10 µM at KAT-6A, less than 10 µM against KAT-5, less than 10 µM against KAT-7 and 10 to 50 µM against KAT-8.

`CC1CCN(C(=O)OC(C)(C)C)CC1CS(=O)(=O)NNC(=O)c1cc(-c2cn(C)cn2)cc(Cl)c1F` (stereo not drawn) [Compound I-303]: the IC50 against KAT-6A was 10 to 50 µM; at KAT-5, less than 10 µM; at KAT-7, less than 10 µM; on KAT-8, 10 to 50 µM.

As to `Cn1cnc(-c2cc(Cl)c(F)c(C(=O)NNS(=O)(=O)c3cscn3)c2)c1` [Compound I-304], the IC50 against KAT-6A is less than 10 µM; against KAT-5 it was less than 10 µM; at KAT-7 it was less than 10 µM; against KAT-8, 10 to 50 µM.

Regarding `Cn1cnc(-c2ccc(F)c(C(=O)NNS(=O)(=O)C[C@H]3CCC[C@H](O)C3)c2)c1` [Compound I-305], the IC50 is 10 to 50 µM on KAT-6A, 10 to 50 µM on KAT-5, less than 10 µM against KAT-7 and 10 to 50 µM on KAT-8.

With `Cn1cnc(-c2cc(Cl)c(F)c(C(=O)NNS(=O)(=O)C[C@H]3CCC[C@H](O)C3)c2)c1` [Compound I-306], the IC50 is less than 10 µM against KAT-6A, less than 10 µM against KAT-5, less than 10 µM on KAT-7 and 10 to 50 µM at KAT-8.

With `CC1CCNCC1CS(=O)(=O)NNC(=O)c1cc(-c2cn(C)cn2)cc(Cl)c1F` (stereo not drawn) [Compound I-307], the IC50 against KAT-6A, against KAT-5, against KAT-7 and against KAT-8 was 10 to 50 µM in each case.

For `Cn1cnc(-c2cc(Cl)c(F)c(C(=O)NNS(=O)(=O)CC3CC4CCC3C4)c2)c1` (stereo not drawn) [Compound I-308], the IC50 against KAT-6A, at KAT-5, against KAT-7 and at KAT-8 was less than 10 µM each time.

Regarding `Cn1cnc(-c2cc(Cl)c(F)c(C(=O)NNS(=O)(=O)c3ccccc3Cl)c2)c1` [Compound I-309], the IC50 against KAT-6A is less than 10 µM; on KAT-5 it was less than 10 µM; against KAT-7, less than 10 µM; at KAT-8, 10 to 50 µM.

For `CN1CCN([C@H]2CC[C@@H](CS(=O)(=O)NNC(=O)c3cc(-c4cn(C)cn4)cc(Cl)c3F)CC2)C1=O` [Compound I-310], the IC50 at KAT-6A is less than 10 µM; at KAT-5 it was less than 10 µM; against KAT-7, less than 10 µM; against KAT-8, 10 to 50 µM.

Consider `CNC(=O)Cn1nc(-c2cc(Cl)c(F)c(C(=O)NNS(=O)(=O)CC3CCCCC3)c2)cc1C` [Compound I-311], for which the IC50 was 10 to 50 µM against KAT-6A, less than 10 µM against KAT-5, less than 10 µM at KAT-7 and 10 to 50 µM against KAT-8.

As to `CN1CCN([C@H]2C[C@H](CS(=O)(=O)NNC(=O)c3cc(-c4cn(C)cn4)cc(Cl)c3F)C2)C1=O` [Compound I-312], the IC50 against KAT-6A was less than 10 µM; against KAT-5 it was less than 10 µM; on KAT-7, less than 10 µM; against KAT-8, 10 to 50 µM.

On to `CC1CCC(CS(=O)(=O)NNC(=O)c2cc(-c3cn(C)cn3)cc(Cl)c2F)CC1` (stereo not drawn) [Compound I-313], for which the IC50 at KAT-6A is less than 10 µM; at KAT-5 it was less than 10 µM; against KAT-7, less than 10 µM; against KAT-8, 10 to 50 µM.

In the case of `CN(C)C(=O)CS(=O)(=O)NNC(=O)c1cc(-c2cn(C)cn2)cc(Cl)c1F` [Compound I-314], the IC50 was 10 to 50 µM against KAT-6A, 10 to 50 µM at KAT-5, less than 10 µM against KAT-7 and 10 to 50 µM at KAT-8.

For the molecule `Cn1cnc(-c2cc(Cl)c(F)c(C(=O)NNS(=O)(=O)c3ccc(F)cc3)c2)c1` [Compound I-316], the IC50 against KAT-6A is less than 10 µM; at KAT-5, less than 10 µM; against KAT-7, less than 10 µM; against KAT-8, 10 to 50 µM.
